Reference: ChEMBL document CHEMBL2146457, “Development of 'DFG-out' inhibitors of gatekeeper mutant kinases” (Bioorg Med Chem Lett, 2012)

System: Rattus norvegicus
Experiment: Oral bioavailability in rat at 2 mg/kg
Assay type: ADME, organism-based
Conditions: in vivo
Work on `Cc1cn(-c2cc(NC(=O)c3cccc(-c4ccc5nc(NC(=O)C6CC6)sc5n4)c3)cc(C(F)(F)F)c2)cn1` yielded an F of 3.7%. In the case of `CCN1CCN(Cc2ccc(NC(=O)c3cccc(-c4ccc5nc(NC(=O)C6CC6)sc5n4)c3)cc2C(F)(F)F)CC1`, the F is reported as 18.8%.

System: not listed separately
Experiment: Volume of distribution at steady state in rat at 1 mg/kg, iv
Assay type: ADME, organism-based
Design: dose 1 mg/kg, route intravenous
Conditions: in vivo, read-out: Vdss
`Cc1cn(-c2cc(NC(=O)c3cccc(-c4ccc5nc(NC(=O)C6CC6)sc5n4)c3)cc(C(F)(F)F)c2)cn1` showed a Vd of 1.7 L/kg. With `CCN1CCN(Cc2ccc(NC(=O)c3cccc(-c4ccc5nc(NC(=O)C6CC6)sc5n4)c3)cc2C(F)(F)F)CC1` the Vd was 6.5 L/kg.

System: not listed separately
Experiment: MRT in rat at 1 mg/kg, iv
Assay type: ADME, organism-based
Design: dose 1 mg/kg, route intravenous
Conditions: in vivo
For `Cc1cn(-c2cc(NC(=O)c3cccc(-c4ccc5nc(NC(=O)C6CC6)sc5n4)c3)cc(C(F)(F)F)c2)cn1`, the MRT was 3.1 h. For `CCN1CCN(Cc2ccc(NC(=O)c3cccc(-c4ccc5nc(NC(=O)C6CC6)sc5n4)c3)cc2C(F)(F)F)CC1`, the MRT was 8.1 h.

System: not listed separately
Experiment: MRT in rat at 2 mg/kg, po
Assay type: ADME, organism-based
Design: dose 2 mg/kg, route oral
Conditions: in vivo
With `Cc1cn(-c2cc(NC(=O)c3cccc(-c4ccc5nc(NC(=O)C6CC6)sc5n4)c3)cc(C(F)(F)F)c2)cn1` the MRT was 5.3 h. With `CCN1CCN(Cc2ccc(NC(=O)c3cccc(-c4ccc5nc(NC(=O)C6CC6)sc5n4)c3)cc2C(F)(F)F)CC1` the MRT was 7.7 h.

System: not listed separately
Experiment: Clearance in rat at 1 mg/kg, iv
Assay type: ADME, organism-based
Design: dose 1 mg/kg, route intravenous
Conditions: in vivo
`Cc1cn(-c2cc(NC(=O)c3cccc(-c4ccc5nc(NC(=O)C6CC6)sc5n4)c3)cc(C(F)(F)F)c2)cn1` gave a clearance of 9.5 mL/min/kg. In the case of `CCN1CCN(Cc2ccc(NC(=O)c3cccc(-c4ccc5nc(NC(=O)C6CC6)sc5n4)c3)cc2C(F)(F)F)CC1`, the clearance is reported as 13.7 mL/min/kg.

System: not listed separately
Experiment: Clearance in rat at 2 mg/kg, po
Assay type: ADME, organism-based
Design: dose 2 mg/kg, route oral
Conditions: in vivo
`Cc1cn(-c2cc(NC(=O)c3cccc(-c4ccc5nc(NC(=O)C6CC6)sc5n4)c3)cc(C(F)(F)F)c2)cn1` gave a CL/F of 303 mL/min/kg. Compound `CCN1CCN(Cc2ccc(NC(=O)c3cccc(-c4ccc5nc(NC(=O)C6CC6)sc5n4)c3)cc2C(F)(F)F)CC1` has a CL/F of 74.4 mL/min/kg.

System: not listed separately
Experiment: AUC in rat at 1 mg/kg, iv
Assay type: ADME, organism-based
Design: dose 1 mg/kg, route intravenous
Conditions: plasma
For `Cc1cn(-c2cc(NC(=O)c3cccc(-c4ccc5nc(NC(=O)C6CC6)sc5n4)c3)cc(C(F)(F)F)c2)cn1`, the AUC was 1850 ng·h/mL. With `CCN1CCN(Cc2ccc(NC(=O)c3cccc(-c4ccc5nc(NC(=O)C6CC6)sc5n4)c3)cc2C(F)(F)F)CC1` the AUC was 1230 ng·h/mL.

System: not listed separately
Experiment: AUC in rat at 2 mg/kg, po
Assay type: ADME, organism-based
Design: dose 2 mg/kg, route oral
Conditions: plasma
`Cc1cn(-c2cc(NC(=O)c3cccc(-c4ccc5nc(NC(=O)C6CC6)sc5n4)c3)cc(C(F)(F)F)c2)cn1` gave an AUC of 136 ng·h/mL. With `CCN1CCN(Cc2ccc(NC(=O)c3cccc(-c4ccc5nc(NC(=O)C6CC6)sc5n4)c3)cc2C(F)(F)F)CC1` the AUC was 462 ng·h/mL.

System: not listed separately
Experiment: Half life in rat at 2 mg/kg, po
Assay type: ADME, organism-based
Design: dose 2 mg/kg, route oral
Conditions: in vivo
In the case of `Cc1cn(-c2cc(NC(=O)c3cccc(-c4ccc5nc(NC(=O)C6CC6)sc5n4)c3)cc(C(F)(F)F)c2)cn1`, the half-life is reported as 3.7 h. Compound `CCN1CCN(Cc2ccc(NC(=O)c3cccc(-c4ccc5nc(NC(=O)C6CC6)sc5n4)c3)cc2C(F)(F)F)CC1` has a half-life of 4.7 h.

System: not listed separately
Experiment: Cytotoxicity against mouse BA/F3 cells expressing wild type Bcr-Abl
Assay type: functional, cell-based
Conditions: BaF3
Compound `Cc1cn(-c2cc(NC(=O)c3cccc(-c4ccc5nc(NC(=O)C6CC6)sc5n4)c3)cc(C(F)(F)F)c2)cn1` has an EC50 of 380 nM. In the case of `CCN1CCN(Cc2ccc(NC(=O)c3cccc(-c4ccc5nc(N)sc5n4)c3)cc2C(F)(F)F)CC1`, the EC50 is reported as > 10000 nM. For `Nc1nc2ccc(-c3cccc(C(=O)Nc4cccc(C(F)(F)F)c4)c3)nc2s1`, the EC50 was > 10000 nM. Work on `O=C(Nc1cccc(C(F)(F)F)c1)c1cccc(-c2ccc3nc(Nc4ccc(S(=O)(=O)N5CCNCC5)cc4)sc3n2)c1` yielded an EC50 of 6210 nM. For `Cc1nc(Nc2nc3ccc(-c4cccc(C(=O)Nc5cccc(C(F)(F)F)c5)c4)nc3s2)cc(N2CCNCC2)n1`, the EC50 was 1900 nM. With `CCN1CCN(Cc2ccc(C(=O)Nc3cccc(-c4ccc5nc(NC(=O)C6CC6)sc5n4)c3)cc2C(F)(F)F)CC1` the EC50 was 200 nM. Compound `Cc1cn(-c2cc(NC(=O)Nc3cccc(-c4ccc5nc(NC(=O)C6CC6)sc5n4)c3)cc(C(F)(F)F)c2)cn1` has an EC50 of 1240 nM. Work on `O=C(Nc1ccc(N2CCNCC2)c(C(F)(F)F)c1)c1cccc(-c2ccc3nc(NC(=O)C4CC4)sc3n2)c1` yielded an EC50 of 2310 nM. In the case of `CCN1CCN(Cc2ccc(NC(=O)c3ccc(F)c(-c4ccc5nc(NC(=O)C6CC6)sc5n4)c3)cc2C(F)(F)F)CC1`, the EC50 is reported as 20 nM. For `O=C(Nc1ccc(-n2ccnc2)cc1)c1cccc(-c2ccc3nc(NC(=O)C4CC4)sc3n2)c1`, the EC50 was > 10000 nM.

System: not listed separately
Experiment: Cytotoxicity against mouse BA/F3 cells expressing imatinib resistant Bcr-Abl […] mutant
Assay type: functional, cell-based
Conditions: BaF3
Work on `Cc1cn(-c2cc(NC(=O)c3cccc(-c4ccc5nc(NC(=O)C6CC6)sc5n4)c3)cc(C(F)(F)F)c2)cn1` yielded an EC50 of 190 nM. For `CCN1CCN(Cc2ccc(NC(=O)c3cccc(-c4ccc5nc(N)sc5n4)c3)cc2C(F)(F)F)CC1`, the EC50 was > 10000 nM. For `Nc1nc2ccc(-c3cccc(C(=O)Nc4cccc(C(F)(F)F)c4)c3)nc2s1`, the EC50 was > 10000 nM. With `O=C(Nc1cccc(C(F)(F)F)c1)c1cccc(-c2ccc3nc(Nc4ccc(S(=O)(=O)N5CCNCC5)cc4)sc3n2)c1` the EC50 was > 10000 nM. Compound `Cc1nc(Nc2nc3ccc(-c4cccc(C(=O)Nc5cccc(C(F)(F)F)c5)c4)nc3s2)cc(N2CCNCC2)n1` has an EC50 of 2410 nM. With `CCN1CCN(Cc2ccc(C(=O)Nc3cccc(-c4ccc5nc(NC(=O)C6CC6)sc5n4)c3)cc2C(F)(F)F)CC1` the EC50 was 780 nM. Compound `Cc1cn(-c2cc(NC(=O)Nc3cccc(-c4ccc5nc(NC(=O)C6CC6)sc5n4)c3)cc(C(F)(F)F)c2)cn1` has an EC50 of 550 nM. `O=C(Nc1ccc(N2CCNCC2)c(C(F)(F)F)c1)c1cccc(-c2ccc3nc(NC(=O)C4CC4)sc3n2)c1` showed an EC50 of 2300 nM. With `CCN1CCN(Cc2ccc(NC(=O)c3ccc(F)c(-c4ccc5nc(NC(=O)C6CC6)sc5n4)c3)cc2C(F)(F)F)CC1` the EC50 was 300 nM. For `O=C(Nc1ccc(-n2ccnc2)cc1)c1cccc(-c2ccc3nc(NC(=O)C4CC4)sc3n2)c1`, the EC50 was > 10000 nM. `CCN1CCN(Cc2ccc(NC(=O)c3cccc(-c4ccc5nc(NC(=O)C6CC6)sc5n4)c3)cc2C(F)(F)F)CC1` showed an EC50 of 156 nM.

System: not listed separately
Experiment: Cytotoxicity against wild type mouse BA/F3 cells
Assay type: cell-based
Conditions: BaF3
With `Cc1cn(-c2cc(NC(=O)c3cccc(-c4ccc5nc(NC(=O)C6CC6)sc5n4)c3)cc(C(F)(F)F)c2)cn1` the EC50 was 1990 nM. In the case of `CCN1CCN(Cc2ccc(NC(=O)c3cccc(-c4ccc5nc(N)sc5n4)c3)cc2C(F)(F)F)CC1`, the EC50 is reported as > 10000 nM. With `Nc1nc2ccc(-c3cccc(C(=O)Nc4cccc(C(F)(F)F)c4)c3)nc2s1` the EC50 was > 10000 nM. With `O=C(Nc1cccc(C(F)(F)F)c1)c1cccc(-c2ccc3nc(Nc4ccc(S(=O)(=O)N5CCNCC5)cc4)sc3n2)c1` the EC50 was > 10000 nM. Work on `Cc1nc(Nc2nc3ccc(-c4cccc(C(=O)Nc5cccc(C(F)(F)F)c5)c4)nc3s2)cc(N2CCNCC2)n1` yielded an EC50 of 6740 nM. For `CCN1CCN(Cc2ccc(C(=O)Nc3cccc(-c4ccc5nc(NC(=O)C6CC6)sc5n4)c3)cc2C(F)(F)F)CC1`, the EC50 was > 10000 nM. For `Cc1cn(-c2cc(NC(=O)Nc3cccc(-c4ccc5nc(NC(=O)C6CC6)sc5n4)c3)cc(C(F)(F)F)c2)cn1`, the EC50 was > 10000 nM. Work on `O=C(Nc1ccc(N2CCNCC2)c(C(F)(F)F)c1)c1cccc(-c2ccc3nc(NC(=O)C4CC4)sc3n2)c1` yielded an EC50 of 2300 nM. In the case of `CCN1CCN(Cc2ccc(NC(=O)c3ccc(F)c(-c4ccc5nc(NC(=O)C6CC6)sc5n4)c3)cc2C(F)(F)F)CC1`, the EC50 is reported as > 10000 nM. With `O=C(Nc1ccc(-n2ccnc2)cc1)c1cccc(-c2ccc3nc(NC(=O)C4CC4)sc3n2)c1` the EC50 was > 10000 nM. For `CCN1CCN(Cc2ccc(NC(=O)c3cccc(-c4ccc5nc(NC(=O)C6CC6)sc5n4)c3)cc2C(F)(F)F)CC1`, the EC50 was 3080 nM.

System: not listed separately
Experiment: Half life in rat at 1 mg/kg, iv
Assay type: ADME, organism-based
Design: dose 1 mg/kg, route intravenous
Conditions: in vivo
Work on `Cc1cn(-c2cc(NC(=O)c3cccc(-c4ccc5nc(NC(=O)C6CC6)sc5n4)c3)cc(C(F)(F)F)c2)cn1` yielded a half-life of 2.4 h. Work on `CCN1CCN(Cc2ccc(NC(=O)c3cccc(-c4ccc5nc(NC(=O)C6CC6)sc5n4)c3)cc2C(F)(F)F)CC1` yielded a half-life of 5.8 h.

System: not listed separately
Experiment: Cmax in rat at 2 mg/kg, po
Assay type: ADME, organism-based
Design: dose 2 mg/kg, route oral
Conditions: in vivo
With `Cc1cn(-c2cc(NC(=O)c3cccc(-c4ccc5nc(NC(=O)C6CC6)sc5n4)c3)cc(C(F)(F)F)c2)cn1` the Cmax was 32 ng/mL. For `CCN1CCN(Cc2ccc(NC(=O)c3cccc(-c4ccc5nc(NC(=O)C6CC6)sc5n4)c3)cc2C(F)(F)F)CC1`, the Cmax was 53.1 ng/mL.

System: not listed separately
Experiment: Cmax in rat at 1 mg/kg, iv
Assay type: ADME, organism-based
Design: dose 1 mg/kg, route intravenous
Conditions: in vivo
Compound `Cc1cn(-c2cc(NC(=O)c3cccc(-c4ccc5nc(NC(=O)C6CC6)sc5n4)c3)cc(C(F)(F)F)c2)cn1` has a Cmax of 672 ng/mL. `CCN1CCN(Cc2ccc(NC(=O)c3cccc(-c4ccc5nc(NC(=O)C6CC6)sc5n4)c3)cc2C(F)(F)F)CC1` gave a Cmax of 292 ng/mL.

System: not listed separately
Experiment: Cytotoxicity against mouse parental BA/F3 cells
Conditions: BaF3
In the case of `CCN1CCN(Cc2ccc(NC(=O)c3cccc(-c4ccc5nc(NC(=O)C6CC6)sc5n4)c3)cc2C(F)(F)F)CC1`, the EC50 is reported as 3080 nM.
